Patent US20090246212A1, “DEVELOPMENT OF METHOD FOR SCREENING FOR DRUG CAPABLE OF IMPROVING PRODUCTION OF REGULATORY T CELLS AND METHOD FOR PRODUCING REGULATORY T CELLS USING IMMUNOSUPPRESSIVE MACROLIDE ANTIBIOTIC” (KYOTO UNIVERSITY, priority 2005, published 2009)

How the values were obtained:
[1] = tested on: adjuvant-induced arthritis model; details: model of rheumatoid arthritis; cited from earlier work
[2] = tested on: CD45RA^+CD25^+CD4^+ T cells; experiment: FACS phenotype analysis of the T cell line from CD45RA^+CD25^+CD4^+ T cells cultured with rapamycin; format: cell-based, human
Description: PBMC derived from the subjects, or expanded T cell line were incubated with various antibodies for 30 min at 4° C. in the dark, washed, and analyzed using a BD FACSAria cell sorter and a FACSDiVA software (Becton Dickinson). The antibodies used were perCP-conjugated anti-CD4 mAb, biotin-conjugated anti-CD25 mAb, FITC-conjugated anti-CD45RA mAb, PE-conjugated anti-CD45RB mAb, anti-CD45RO mAb, anti-CD62L mAb, anti-CD38 mAb, anti-GITR mAb, and anti-TNFRII mAb. For intracellular staining with CTLA-4, the cells were subjected to cell surface staining, fixation, and permeabilization with Cytofix/Cytoperm solution (Becton Dickinson), and then intracellularly stained with PE-conjugated anti-CTLA-4.
(§1) CD45RA^+CD25^+CD4^+ T cells or CD45RA^+CD25^−CD4^+ T cells in human peripheral blood separated in the same manner as Example 1 (5×10̂4 cells/well) were stimulated with anti-human CD3 and CD28 conjugate beads in a ratio of 4 beads per cell in a 96-well round-bottomed culture plate containing 200 μl per well of a proliferation medium (AlyS505N (produced by Cell Science & Technology Institute) supplemented with 2% human AB serum) in the presence of human IL-2 (1000 U/ml, produced by Cell Science & Technology Institute). Rapamycin (20 nM, produced by Sigma) was added to the medium 0 or 40 days after the start of cultivation. Every 3 to 4 days, half of the medium was replaced with a fresh proliferation medium containing IL-2. If necessary, the cells were separated and repeatedly re-stimulated with anti-CD3/CD28 antibody conjugate beads every 10 to 14 days. Fifty days after the start of cultivation, the cells were collected and used for FACS analysis.
Expanded T cell lines were incubated with various antibodies for 30 minutes at 4° C. in the dark, washed, and analyzed using BD FACSAria cell sorter and FACSDiVA software (Becton Dickinson). The antibodies and staining conditions used were the same as Example 1.

[3] = tested on: CD45RA^+CD25^+CD4^+ T cell line; experiment: Mixed lymphocyte reaction with trans-well, rapamycin-cultured CD45RA^+CD25^+CD4^+ T cell line; format: cell-based, human; details: rapamycin 20 nM from day 40
Description: as §1, with “medium” for “medium 0 or”, “functional assay.” for “FACS analysis.”
Total CD4^+ T cells in peripheral blood were isolated in the same manner as Example 1. […] The culture product was collected, and [3H] thymidine uptake was measured using 1450 Microbeta TriLux (Wallac).

[4] = used alone or in combination with picibanil; cited from earlier work
[5] = tested on: mouse CD4^+ T; details: cited from earlier work
[6] = tested on: CD45RA^+CD25^−CD4^+ T cells; experiment: Expansion culture of CD45RA^+CD25^−CD4^+ T cells with anti-CD3/CD28 beads and IL-2, rapamycin added; format: cell-based, human
Description: Venous blood was obtained from healthy volunteers (human). Peripheral blood mononuclear cell (PBMC) was isolated by Ficoll-Hypaque (Amersham Biosciences-Uppsala) density gradient centrifugation. The cells were stained with allophycocyanin (APC)-conjugated anti-CD4 monoclonal antibody (mAb), phycoerythrin (PE)-conjugated anti-CD25 mAb, and fluorescein isothiocyanate (FITC)-conjugated anti-CD45RA mAb for 30 min at 4° C. in the dark, after which the following six different cell fractions were isolated using a BD FACSAria cell sorter (Becton Dickinson)(see FIG. 1A).
CD45RA^+CD25^+CD4^+ T cells or CD45RA^+CD25^−CD4^+ T cells (5×10̂4 cells/well) separated as described above were stimulated with anti-human CD3 and CD28 conjugate beads in a ratio of 4 beads per cell in a 96-well round-bottomed culture plate containing 200 μl per well of a proliferation medium (AlyS505N (produced by Cell Science & Technology Institute) supplemented with 2% human AB serum) in the presence of human IL-2 (1000 U/ml, produced by Cell Science & Technology Institute). Rapamycin (20 nM, produced by Sigma) was added as appropriate. Every 3 to 4 days, half of the medium was replaced with a fresh proliferation medium containing IL-2. If necessary, the cells were separated and repeatedly re-stimulated with anti-CD3/CD28 antibody conjugated beads every 10 to 14 days. Two days before functional assay, the anti-CD3/CD28 antibody conjugated beads were removed magnetically, and the cells were cultured along with 100 U/ml IL-2 in the absence of rapamycin. After 3 times of washing, the cells were used for functional assay.

[7] = rapamycin 20 nM from day 40, collected day 50
[8] = stimulated in the presence of rapamycin

Compound: CO[C@H]1C[C@@H]2CC[C@@H](C)[C@@](O)(O2)C(=O)C(=O)N2CCCC[C@H]2C(=O)O[C@H]([C@H](C)C[C@@H]2CC[C@@H](O)[C@H](OC)C2)CC(=O)[C@H](C)/C=C(\C)[C@@H](O)[C@@H](OC)C(=O)[C@H](C)C[C@H](C)/C=C/C=C/C=C/1C [rapamycin]
- efficacy in adjuvant-induced arthritis model [1]: effective
- CD45RO phenotype of the T cell line ([2]; rapamycin 20 nM from day 0, collected day 50): negative
- CD25 expression relative to CD45RA^−CD25^high+CD4^+ T cells in peripheral blood [2, 7]: about 0.8 times
- CD45RA expression relative to CD45RA^+CD25^+CD4^+ T cells in peripheral blood [2, 7]: about ⅙
- CD45RB expression relative to CD45RA^−CD25^high+CD4^+ T cells in peripheral blood [2, 7]: about 4 times
- CD45RO expression relative to CD45RA^−CD25^high+CD4^+ T cells in peripheral blood [2, 7]: about 1/50
- CD62L expression relative to CD45RA^−CD25^high+CD4^+ T cells in peripheral blood [2, 7]: about ⅙
- GITR / CTLA4 phenotype of the T cell line [2, 7]: GITR^+CTLA4^+
- T cell line's effect on proliferation of total CD4^+ T cells ([3]; conditions that allow cell contact): strongly suppressed
- suppression of the proliferation of total CD4^+ T cells by the T cell line ([3]; contact blocked with the trans-well): interrupted
- antitumor activity [4]: possess antitumor activity
- CD4^+CD25^+FOXP3^+ regulatory T cells ([5]; mouse CD4^+ T stimulated with an antigen in the presence of rapamycin): expanded selectively
- expression of FOXP3 in CD4^+CD25^− T cells [5, 8]: did not enhance
- proliferation of isolated CD4^+CD25^+ T cells [5, 8]: proliferated vigorously
- suppressive function of the T cell population produced from CD4^+CD25^+ T cells [5, 8]: having suppressive function
- suppressive function of the T cell population produced from CD4^+CD25^− T cells [5, 8]: without suppressive function
- influence on the proliferation of the T cell line ([6]; rapamycin 20 nM added 19 days after start of cultivation): almost no influence
- proliferation of CD45RA^+CD25^−CD4^+ T cells ([6]; rapamycin 20 nM from the start of cultivation, compared with cultivation in the absence of rapamycin): slightly suppressed
- increase of cell number in the culture product ([6]; rapamycin 20 nM from the start of cultivation, about 35 days after start): about 700 times
